Values of other authors, collected in PMC9851200, “Multiparameter phenotypic screening for endogenous TFEB and TFE3 translocation identifies novel chemical series modulating lysosome function” (Autophagy, 2022).

How the values were obtained:
Set-up in all cases: method as in original PKIS2 published data
[1] = target: T1, kinases (KINOMEscan panel) (Homo sapiens, UniProt O75747); conditions: Published KINOMEscan; ref original PKIS2 published data; cited from earlier work
T1 sequence (O75747 1-1486): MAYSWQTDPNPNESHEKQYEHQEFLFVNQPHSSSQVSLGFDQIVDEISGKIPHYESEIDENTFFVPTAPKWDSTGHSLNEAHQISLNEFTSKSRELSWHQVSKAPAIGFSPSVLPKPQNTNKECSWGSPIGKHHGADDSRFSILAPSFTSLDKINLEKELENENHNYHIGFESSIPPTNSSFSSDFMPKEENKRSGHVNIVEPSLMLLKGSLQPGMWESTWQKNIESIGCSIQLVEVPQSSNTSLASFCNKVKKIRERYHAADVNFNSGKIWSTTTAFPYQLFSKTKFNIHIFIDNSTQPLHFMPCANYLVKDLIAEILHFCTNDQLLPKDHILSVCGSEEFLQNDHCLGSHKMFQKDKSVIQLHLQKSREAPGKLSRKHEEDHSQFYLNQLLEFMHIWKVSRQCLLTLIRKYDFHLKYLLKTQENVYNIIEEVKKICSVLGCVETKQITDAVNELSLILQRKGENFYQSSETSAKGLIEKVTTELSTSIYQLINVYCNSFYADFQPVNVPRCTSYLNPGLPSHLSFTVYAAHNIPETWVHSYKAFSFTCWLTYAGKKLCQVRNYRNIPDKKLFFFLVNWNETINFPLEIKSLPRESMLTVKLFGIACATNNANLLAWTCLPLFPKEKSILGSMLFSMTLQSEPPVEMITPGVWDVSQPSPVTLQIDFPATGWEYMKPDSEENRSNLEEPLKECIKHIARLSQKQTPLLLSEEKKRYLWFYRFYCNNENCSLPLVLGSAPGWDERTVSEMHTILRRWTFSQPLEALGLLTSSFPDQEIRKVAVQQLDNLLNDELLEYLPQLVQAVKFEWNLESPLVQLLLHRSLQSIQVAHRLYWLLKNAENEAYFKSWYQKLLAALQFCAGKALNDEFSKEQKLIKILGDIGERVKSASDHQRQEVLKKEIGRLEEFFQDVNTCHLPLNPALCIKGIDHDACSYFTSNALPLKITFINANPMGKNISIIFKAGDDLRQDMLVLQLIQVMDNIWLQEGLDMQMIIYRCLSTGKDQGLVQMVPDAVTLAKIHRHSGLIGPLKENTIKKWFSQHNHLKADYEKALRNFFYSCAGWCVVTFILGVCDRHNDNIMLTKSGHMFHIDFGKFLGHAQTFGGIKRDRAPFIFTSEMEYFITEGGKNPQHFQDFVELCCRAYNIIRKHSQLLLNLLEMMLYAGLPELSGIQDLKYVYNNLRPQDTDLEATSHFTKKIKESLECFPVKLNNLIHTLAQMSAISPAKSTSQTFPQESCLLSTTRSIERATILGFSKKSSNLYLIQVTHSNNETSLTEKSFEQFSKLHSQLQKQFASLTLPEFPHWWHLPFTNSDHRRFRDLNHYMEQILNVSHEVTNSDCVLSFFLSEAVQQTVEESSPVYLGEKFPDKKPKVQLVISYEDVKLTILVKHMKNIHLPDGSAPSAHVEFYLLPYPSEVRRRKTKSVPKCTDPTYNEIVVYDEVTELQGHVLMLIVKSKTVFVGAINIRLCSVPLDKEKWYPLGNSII

[2] = target: T2, kinases (KINOMEscan panel) (Homo sapiens, UniProt O15111); conditions: cited from earlier work
T2 sequence (O15111 1-745): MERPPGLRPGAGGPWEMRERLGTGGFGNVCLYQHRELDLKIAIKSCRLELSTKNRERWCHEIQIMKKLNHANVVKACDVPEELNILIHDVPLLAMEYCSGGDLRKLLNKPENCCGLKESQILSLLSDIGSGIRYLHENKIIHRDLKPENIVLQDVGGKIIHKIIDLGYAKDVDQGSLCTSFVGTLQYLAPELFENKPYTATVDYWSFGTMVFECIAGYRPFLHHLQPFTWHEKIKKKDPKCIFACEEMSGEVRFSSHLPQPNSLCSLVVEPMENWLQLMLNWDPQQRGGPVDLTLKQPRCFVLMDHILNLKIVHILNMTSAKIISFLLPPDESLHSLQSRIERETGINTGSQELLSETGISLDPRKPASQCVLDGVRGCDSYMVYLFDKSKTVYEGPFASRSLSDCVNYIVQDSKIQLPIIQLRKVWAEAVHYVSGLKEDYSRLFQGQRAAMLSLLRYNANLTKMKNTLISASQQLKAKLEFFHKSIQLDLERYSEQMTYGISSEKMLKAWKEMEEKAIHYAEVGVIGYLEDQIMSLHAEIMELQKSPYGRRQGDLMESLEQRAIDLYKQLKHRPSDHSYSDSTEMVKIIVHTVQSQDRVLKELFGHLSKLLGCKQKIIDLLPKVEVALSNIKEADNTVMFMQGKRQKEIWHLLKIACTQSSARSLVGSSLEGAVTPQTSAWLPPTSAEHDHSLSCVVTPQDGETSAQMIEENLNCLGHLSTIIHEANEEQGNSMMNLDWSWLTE

[3] = target: kinases (KINOMEscan panel) (Homo sapiens, UniProt P24723); conditions: kinase PRKCH; Published KINOMEscan; ref original PKIS2 published data; cited from earlier work
Chain of kinases (KINOMEscan panel) (Homo sapiens, UniProt P24723) (P24723 whole entry): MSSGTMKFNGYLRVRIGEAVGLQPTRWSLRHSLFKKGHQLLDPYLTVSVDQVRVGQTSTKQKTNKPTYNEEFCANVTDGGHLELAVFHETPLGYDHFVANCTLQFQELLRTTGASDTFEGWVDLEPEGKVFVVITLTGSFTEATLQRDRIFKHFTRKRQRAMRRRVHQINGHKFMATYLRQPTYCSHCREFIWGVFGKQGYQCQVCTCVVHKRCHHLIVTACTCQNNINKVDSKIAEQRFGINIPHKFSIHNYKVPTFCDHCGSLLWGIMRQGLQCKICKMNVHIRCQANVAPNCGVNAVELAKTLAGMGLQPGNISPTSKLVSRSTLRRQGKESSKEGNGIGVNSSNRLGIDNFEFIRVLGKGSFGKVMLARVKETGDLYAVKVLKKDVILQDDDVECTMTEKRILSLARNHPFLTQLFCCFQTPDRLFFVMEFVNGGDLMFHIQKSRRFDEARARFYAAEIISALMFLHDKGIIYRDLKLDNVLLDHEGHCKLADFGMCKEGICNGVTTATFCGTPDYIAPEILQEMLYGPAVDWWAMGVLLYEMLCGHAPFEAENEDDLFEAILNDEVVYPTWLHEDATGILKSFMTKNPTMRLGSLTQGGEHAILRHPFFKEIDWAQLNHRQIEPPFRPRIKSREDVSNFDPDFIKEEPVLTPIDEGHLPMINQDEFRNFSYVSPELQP

[4] = target: T3, kinases (KINOMEscan panel) (Homo sapiens, UniProt O43318); conditions: Published KINOMEscan; ref original PKIS2 published data; cited from earlier work
T3 sequence (O43318 1-606): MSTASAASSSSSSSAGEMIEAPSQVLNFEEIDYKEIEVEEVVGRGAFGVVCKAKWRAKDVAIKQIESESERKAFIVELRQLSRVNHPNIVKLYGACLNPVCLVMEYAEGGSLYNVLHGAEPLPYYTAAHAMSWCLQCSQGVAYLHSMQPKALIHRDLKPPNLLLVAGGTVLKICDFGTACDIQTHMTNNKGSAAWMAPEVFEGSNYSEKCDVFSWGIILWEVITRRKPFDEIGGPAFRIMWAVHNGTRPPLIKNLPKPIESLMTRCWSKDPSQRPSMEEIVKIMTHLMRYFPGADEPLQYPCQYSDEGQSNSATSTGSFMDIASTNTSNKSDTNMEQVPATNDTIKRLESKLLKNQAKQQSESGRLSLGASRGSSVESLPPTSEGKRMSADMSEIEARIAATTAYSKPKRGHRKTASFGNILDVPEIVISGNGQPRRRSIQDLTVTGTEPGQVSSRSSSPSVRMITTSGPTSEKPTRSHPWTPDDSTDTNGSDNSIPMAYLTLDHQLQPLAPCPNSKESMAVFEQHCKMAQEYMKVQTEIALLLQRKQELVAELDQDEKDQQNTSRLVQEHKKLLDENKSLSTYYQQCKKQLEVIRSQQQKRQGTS

Cc1cccc(-c2nc(Nc3ccncc3)c3ccccc3n2)n1 [NK215]
0: KINOMEscan PIK3C2G [1] | KINOMEscan CHUK/IKK-alpha [2] | KINOMEscan PRKCH [3] | KINOMEscan MAP3K7 [4]
